Tests used:
[1] = test system: preadipocytes / differentiating adipocytes; experiment: Adipocyte differentiation assay, markers taken together; format: cell-based, human; settings: for expression levels of markers of adipocyte differentiation (TG, leptin, aP2, HSL, Glut4, PPARγ): preadipocytes, 250 nM, day nine post-transfection, relative to ISIS-29848; for expression of the adipocyte differentiation markers, compounds targeting mir-143 miRNA or pri-miRNA compared: preadipocytes (Table 20)
DIO mice = experiment: Diet-induced obesity (DIO) mice; format: in vivo; settings: for liver toxicity (plasma transaminase levels, weekly): 25 mg/kg s.c. twice weekly, 25 mg/kg
Method: As described, supra, the C57BL/6 mouse strain is reported to be susceptible to hyperlipidemia-induced atherosclerotic plaque formation, and when these mice are fed a high-fat diet, they develop diet-induced obesity (DIO). Accordingly, the DIO mouse model is useful for the investigation of obesity and development of agents designed to treat these conditions. In one embodiment of the present invention, oligomeric compounds targeting miRNAs were tested in the DIO model. Normal C57/BL6 male mice were fed a high fat diet (40% fat, 41% carbohydrate, 18% protein) for 12 weeks before the study began. DIO mice were then randomized by weight and insulin values. Initial body fat composition was determined by Dual X-ray Absorptiometry (DEXA) Scan. DIO mice were then subcutaneously injected with oligomeric compounds of the invention at a dose of 25 mg/kg, twice weekly. DIO mice were treated with oligomeric compounds ISIS Numbers 327901 and 340927 targeting mir-143, ISIS Numbers 327892 and 340926 targeting mir-131/mir-9, ISIS Numbers 327878 and ISIS Number 345349 targeting mir-203, and ISIS Numbers 327889 and 340925, targeting mir-23b. […] DEXA scans were also performed at weeks 0, 3 and 5 after treatment with the oligomeric compounds to assess the fat mass to lean mass ratio. The effects of target inhibition on levels of plasma glucose and insulin, liver transaminases, cholesterol and triglycerides, were also assessed weekly by tail bleed, and after the treatment period, mice were sacrificed and liver and kidney heart, as well as white adipose tissue (WAT) tissues collected. The mRNA expression levels of the Glut4, aP2, HSL and PPARγ marker genes are also assessed. […] Furthermore, some improvement in body composition (a reduction in body weight and fat mass) was observed.

Sequence | expression levels of markers of adipocyte differentiation (TG, leptin, aP2, HSL, Glut4, PPARγ) [1] | liver toxicity (plasma transaminase levels, weekly) (DIO mice) | expression of all five markers of differentiation, dose response ([1]; differentiating adipocytes, 50, 100, 200 and 300 nM, 24 hours) | expression of the adipocyte differentiation markers, compounds targeting mir-143 miRNA or pri-miRNA compared [1] | expression of the adipocyte differentiation markers, compounds targeting mir-143 miRNA or pri-miRNA compared ([1]; listed as ISIS 340972) | insulin levels (DIO mice; two and four week time points, vs saline)
ACTTTCGGTTATCTAGCTTTA [ISIS 327892] (chemistry not given here) [uniform 2′-MOE PS; targets mir-131-2/mir-9] | significantly reduce the expression levels of 5 of 6 markers of adipocyte differentiation | did not appear to cause liver toxicity |  |  |  | 
TGAGCTACAGTGCTTCATCTCA [ISIS 327901] (chemistry not given here) [uniform 2′-MOE PS; targets mir-143] | significantly reduce the expression levels of 5 of 6 markers of adipocyte differentiation | did not appear to cause liver toxicity | dose responsive reduction of expression of all five markers of differentiation | more effective |  | 
TGAGCTACAGTGCTTCATCTCA [ISIS 340927] (chemistry not given here) [5-10-7 2′-MOE gapmer PS; targets mature mir-143] |  | did not cause significant increases in liver toxicity |  |  | reduced expression of the adipocyte differentiation markers | effective at reducing insulin levels
